Here are results for 26 molecules from ChEMBL document CHEMBL5620351, “Advancing beyond reverse transcriptase inhibitors: The new era of hepatitis B polymerase inhibitors” (Eur J Med Chem, 2023).

Data set [1] deals with Hepatitis B virus. Briefly: Antiviral activity against HBV infected in human HepDES19 cells assessed as reduction in HBV replication. It counts as functional, organism-based.
For data set [2], the system named is Hepatitis B virus. The experiment in a line: Antiviral activity against HBV infected in human HepDES19 cells assessed as inhibition of HBV replication by qPCR analysis. The class given is functional, organism-based. (In general: Quantitative PCR measures a nucleic acid by following its amplification.)
Data set [3] can be described thus: Cytotoxicity against human HEK293 cells assessed as reduction in cell viability incubated for 1 hr by MTS assay. It counts as toxicity, cell-based. On the technique in general: Tetrazolium dyes change colour on reduction, which living cells bring about.
The test system of data set [4] is Hepatitis B virus. Briefly: Antiviral activity against HBV infected in human HepDES19 cells assessed as inhibition of extracellular HBV DNA by qPCR analysis. The class given is functional, organism-based.
Data set [5] can be described thus: Cytotoxicity against human LX2 cells assessed as reduction in cell viability incubated for 1 hr by MTS assay. Particulars: LX-2 cells. The class given is toxicity, cell-based.
Data set [6] can be described thus: Cytotoxicity against human HepDES19 cells assessed as reduction in cell viability incubated for 1 hr by MTS assay. It counts as functional.
The subject of data set [7] is HepG2. The experiment in a line: Cytotoxicity against human HepG2 cells assessed as cell viability incubated for 12 days by WST-1 assay. It counts as functional. As to conditions: HepG2, 288 h, time 12 day.
Data set [8] is described as follows: Cytotoxicity against human primary hepatocytes assessed as cell viability incubated for 72 hrs by MTS assay. The class given is toxicity, cell-based, Hepatocyte.
Data set [9] relates to Hepatitis B virus. Briefly: Antiviral activity against HBV infected in human HepG2-NTCP12 cells assessed as inhibition of extracellular HBV DNA incubated for 2 weeks by SYBR green dye based quantitative PCR analysis. Particulars: HepG2-NTCP12, 336 h. It counts as functional, organism-based.
Data set [10] is described as follows: Cytotoxicity against human primary hepatocytes assessed as cell viability incubated for 72 hrs by LDH release assay. The class given is toxicity, cell-based, Hepatocyte. On the technique in general: LDH leaks from cells whose membrane has failed.
For data set [11], the system named is Hepatitis B virus. The experiment in a line: Antiviral activity against HBV infected in human HepG2 2.2.15 cells assessed as reduction on HBsAg level incubated for 5 days. It counts as functional. Also noted: concentration or dose not given beside the values. Particulars: time 5 day.
Data set [12] concerns Hepatitis B virus. The experiment in a line: Antiviral activity against HBV infected in human HePAD38 cells assessed as reduction in HBV replication by qPCR analysis. The class given is functional, organism-based.
Data set [13] is described as follows: Cytotoxicity against human HepAD38 cells assessed as reduction in cell viability incubated for 4 days by XTT assay. The class given is functional. As to conditions: HePAD38, 96 h, time 4 day.
For data set [14], the system named is HepG2. The experiment in a line: Cytotoxicity against human HepG2 cells assessed as reduction in cell viability by MTS assay. The class given is functional.
Data set [15] has as its system HepG2. The experiment in a line: Cytotoxicity against human HepG2 cells assessed as reduction in cell viability in presence of lamivudine by MTS assay. The class given is functional.
Data set [16] deals with Hepatitis B virus. Briefly: Antiviral activity against HBV transfected in human HB611 cells. The class given is functional, organism-based.
In data set [17] the test system is Hepatitis B virus. The experiment in a line: Antiviral activity against HBV transfected in human HB611 cells assessed as reduction of HBV DNA replication incubated for 5 days by q-PCR analysis. The class given is functional, organism-based. As to conditions: HB611, 120 h.
Data set [18] can be described thus: Inhibition of HBV RNA polymerase. Also noted: species or system Hepatitis B virus.
Data set [19] is described as follows: Cytotoxicity against human HB611 cells assessed as reduction in cell viability incubated for 6 to 9 days by celltiter-glo assay. It counts as functional. As to conditions: time 6-9 day.
The test system of data set [20] is HepG2 2.2.15. The experiment in a line: Cytotoxicity against human HepG2 2.2.15 cells assessed as cell viability incubated for 12 days by WST-1 assay. Particulars: HepG2 2.2.15, 288 h, time 12 day. It counts as functional.
Data set [21] concerns Hepatitis B virus. Briefly: Antiviral activity against HBV infected in human HepG2 2.2.15 cells assessed as reduction in intracellular DNA level. It counts as functional, organism-based.
Data set [22] deals with Hepatitis B virus. The experiment in a line: Antiviral activity against HBV infected in human HepG2 2.2.15 cells assessed as reduction in extracellular DNA level. The class given is functional, organism-based.

pEC50, pIC50: −log10 of the molar value.

One may read the pEC50 as the negative decadic logarithm of the EC50, by convention in mol/L. Turning to `CC(=NOCc1ccccc1F)c1c(C)cc(=O)n(O)c1O`, the pEC50 in data set [1] was 6.96.

`O=C(NCc1ccccc1)C1C(=O)N(O)C(=O)c2ccccc21` (stereo not drawn): in data set [2], the pEC50 was 6.16.

Turning to `CCNC(=O)C1C(=O)N(O)C(=O)c2ccc(OC)nc21` (stereo not drawn), the negative logarithm of the EC50 (pEC50) in data set [1] is 5.62.

As to `COc1ccc2c(c1)C(=O)N(O)C(=O)C2C(=O)NCc1ccc(F)cc1` (stereo not drawn), in data set [2], the pEC50 was 6.16.

Turning to `COC(=O)C1C(=O)N(O)C(=O)c2ccccc21` (stereo not drawn), the pEC50 in data set [2] is 6.16.

Broadly, the CC50 is the concentration that lowers cell viability or growth by half. Turning to `O=C1OCc2cc(O)c(=O)c(O)cc21`, the CC50 at 1 h in [3] and in [5] was more than 100 µM throughout. Also, the pEC50 in data set [4] is 6.22. For the same molecule, the CC50 in [6] was more than 100 µM.

Take `O=C(CCc1ccc(O)c(O)c1)OCCc1ccc(O)c(O)c1`: the CC50 in data set [7] turned out to be 229 µM.

On to `COC(=O)c1c2c(cc(O)c(=O)c1O)COC2=O`, for which the CC50 at 1 h in [3] was more than 100 µM. The pEC50 in data set [4] was 6.30. In [6], the CC50 is more than 77 µM.

As to `CC(=O)c1cc(O)c(=O)c(O)cc1C`, the CC50 at 72 h in [8] and in [10] was more than 100 µM throughout. In [9], the pEC50 was 7.31.

For the molecule `C/C=C(\C)C(=O)O[C@H]1C[C@@H](OC(C)=O)[C@@]2(C(=O)OC)CO[C@H]3[C@@H](O)[C@@](C)([C@]45O[C@@]4(C)[C@H]4C[C@@H]5O[C@@H]5OC=C[C@@]54O)[C@H]4[C@]1(CO[C@]4(O)C(=O)OC)[C@@H]32` [AZADIRACTIN], in data set [11], the Activity worked out at 62%.

In the case of `Cc1c(O)c2cc(Br)cnc2n(O)c1=O`, the CC50 at 72 h in data set [8] and in data set [10] was more than 100 µM each time. The pEC50 in data set [9] was 7.31.

In the case of `COC(=O)C1C(=O)N(O)C(=O)c2cc(NC(=O)c3ccccc3)ccc21` (stereo not drawn), the pEC50 in data set [1] was 5.62.

In the case of `O=c1c(O)c(-c2ccc(O)c(O)c2)oc2cc(O)cc(O)c12` [QUERCETIN], in [11], the Activity is listed as 62%.

For the molecule `O=C(Nc1ccccc1)C1C(=O)N(O)C(=O)c2ccccc21` (stereo not drawn), the pEC50 in data set [2] was 6.16.

Consider `CC(=O)O[C@H]1C(=O)[C@@]2(C)[C@H]([C@H](OC(=O)c3ccccc3)[C@]3(O)C[C@H](O)C(C)=C1C3(C)C)[C@]1(OC(C)=O)CO[C@@H]1C[C@@H]2O` [BACCATIN III], for which the Activity in [11] is 62%.

As to `CC(=NOCc1ccc(F)cc1)c1c(C)cc(=O)n(O)c1O`, the pEC50 in data set [1] was 6.96.

For `COc1ccc(CNC(=O)C2C(=O)N(O)C(=O)c3cc([N+](=O)[O-])ccc32)cc1` (stereo not drawn), in [2], the pEC50 is 6.16.

Take `CC(=NOc1ccccc1)c1c(C)cc(=O)n(O)c1O`: the pEC50 in data set [1] is 6.96.

In general, pIC50 refers to the negative decadic logarithm of the IC50, by convention in mol/L. In the case of `COc1ccc(-c2cccc(Nc3cc(=O)n(O)c(=O)[nH]3)c2)cc1`, the pIC50 in data set [12] is 5.10. Also, the CC50 in data set [13] was more than 100 µM.

On to `O=C1Cc2ccccc2C(=O)N1O`, for which, in [2], the pEC50 is 6.16. Moreover, the half-maximal cytotoxic concentration (CC50) in data set [14] and in data set [15] was more than 100 µM throughout.

On to `CCCCCCCC/C=C\CCCCCCCC(=O)NCCc1ccc(O)c(O)c1` [OLEOYL DOPAMINE], for which the pEC50 in data set [16] is 6.89. Besides, the results for the pIC50 in data set [17] and in data set [18] were 7.00 and 6.39, respectively. Besides, the CC50 in [19] turned out to be 900 nM.

Turning to `C/C(=N\OCc1ccc(F)cc1)c1c(C)cc(=O)n(O)c1O`, the CC50 at 72 h in data set [8] and in data set [10] was more than 100 µM in each case. For the same molecule, the pEC50 in data set [9] was 7.31.

As to `COC(=O)c1c(CCl)cc(O)c(=O)c(O)c1C(=O)OC`, the CC50 at 1 h in data set [3] and in data set [5] was more than 100 µM in each case. The pEC50 in data set [4] was 6.40. Further, the CC50 in data set [6] is more than 80 µM.

As to `C=CCNc1nc(N)c(/C(N)=N\C#N)s1`, in [20], the CC50 was 7.2 µM. For the same molecule, the pEC50 is 6.13 in [21] and 6.32 in [22].

Turning to `O=c1ccc2cc3ccoc3cc2o1` [PSORALEN], in data set [11], the Activity is listed as 62%.

On to `CC(=NOCc1ccccc1)c1c(C)cc(=O)n(O)c1O`, for which the pEC50 in data set [1] was 6.96.
